Type in all cases: biochemical
The target of experiment [1] is T1, Human Tyk2 kinase domain (Homo sapiens, UniProt P29597).
T1 construct: comprising amino acids 886 to 1187 with 10 additional histidine residues; 10xHis (histidine tag) (C, cleaved yes); made in house
T1 sequence (P29597 886-1187): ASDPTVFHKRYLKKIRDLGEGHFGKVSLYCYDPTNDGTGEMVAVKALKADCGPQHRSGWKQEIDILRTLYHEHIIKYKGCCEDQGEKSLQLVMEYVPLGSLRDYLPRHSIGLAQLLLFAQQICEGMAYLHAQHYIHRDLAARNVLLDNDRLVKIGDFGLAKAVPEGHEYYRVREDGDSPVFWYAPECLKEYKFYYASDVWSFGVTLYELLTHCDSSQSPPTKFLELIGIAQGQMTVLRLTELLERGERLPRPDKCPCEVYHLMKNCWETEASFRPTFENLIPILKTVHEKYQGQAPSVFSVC
The experiment can be described thus: Tyk2 Inhibition Assay (Omnia kinase fluorescence peptide substrate assay). As to conditions: averaged IC50 ranges; assay of Example A; 10 μM (Km app) or 1 mM ATP, 2 nM Tyk2. A digest of the protocol: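 2 nM His-tag-cleaved kinase domain (aa 886–1187) with 8 μM Omnia Y12 peptide, 10 μM (Km app) or 1 mM ATP, pH 7.4 HEPES/10 mM MgCl2, 2% DMSO. Fluorescence (ex 360/em 485 nm) every 50 s for 45 min; IC50 from 4-parameter fit of POC, top dose 10 μM.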

The target of experiment [2] is T2, JAK1 (Homo sapiens, UniProt P23458).
T2 construct: purchased Invitrogen Corporation, Carlsbad, Calif; PV4775
T2 sequence (P23458 whole entry): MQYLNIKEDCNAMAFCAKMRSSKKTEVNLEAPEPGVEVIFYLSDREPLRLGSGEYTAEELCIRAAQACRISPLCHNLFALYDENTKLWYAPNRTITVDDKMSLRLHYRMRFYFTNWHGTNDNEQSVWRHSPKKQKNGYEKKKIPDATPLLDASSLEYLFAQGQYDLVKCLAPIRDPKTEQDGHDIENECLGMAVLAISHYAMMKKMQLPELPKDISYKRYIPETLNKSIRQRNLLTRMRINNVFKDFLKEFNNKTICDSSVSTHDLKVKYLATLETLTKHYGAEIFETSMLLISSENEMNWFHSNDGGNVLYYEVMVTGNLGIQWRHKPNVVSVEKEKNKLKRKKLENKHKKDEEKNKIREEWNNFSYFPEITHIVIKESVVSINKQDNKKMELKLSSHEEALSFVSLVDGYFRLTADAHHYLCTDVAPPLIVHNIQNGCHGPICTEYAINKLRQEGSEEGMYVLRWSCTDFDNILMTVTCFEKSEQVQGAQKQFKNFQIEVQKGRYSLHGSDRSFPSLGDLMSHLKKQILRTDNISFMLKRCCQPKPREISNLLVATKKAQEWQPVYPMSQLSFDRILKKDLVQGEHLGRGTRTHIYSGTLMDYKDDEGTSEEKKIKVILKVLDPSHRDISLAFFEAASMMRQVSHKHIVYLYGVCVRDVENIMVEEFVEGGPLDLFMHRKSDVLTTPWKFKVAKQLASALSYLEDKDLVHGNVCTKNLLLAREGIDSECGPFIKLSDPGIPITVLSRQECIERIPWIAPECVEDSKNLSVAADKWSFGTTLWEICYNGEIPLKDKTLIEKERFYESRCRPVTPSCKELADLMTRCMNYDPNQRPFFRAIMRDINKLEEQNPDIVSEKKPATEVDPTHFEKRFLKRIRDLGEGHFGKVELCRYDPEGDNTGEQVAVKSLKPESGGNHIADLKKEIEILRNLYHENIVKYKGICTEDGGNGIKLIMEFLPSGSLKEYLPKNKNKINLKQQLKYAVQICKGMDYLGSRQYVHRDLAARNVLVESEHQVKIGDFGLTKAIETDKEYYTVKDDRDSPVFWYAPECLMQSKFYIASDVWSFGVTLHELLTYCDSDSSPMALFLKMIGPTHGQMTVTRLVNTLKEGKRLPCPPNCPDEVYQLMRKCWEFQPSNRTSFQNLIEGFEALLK
The experiment can be described thus: JAK1 Inhibition Assay (Omnia kinase fluorescence peptide substrate assay). As to conditions: averaged IC50 ranges; assay of Example B; 40 μM (Km app) or 1 mM ATP, 15 nM JAK1.

The target in experiment [3] is T3, JAK2 (Homo sapiens, UniProt O60674).
T3 construct: purchased Invitrogen Corporation, Carlsbad, Calif; PV4288
T3 sequence (O60674 whole entry): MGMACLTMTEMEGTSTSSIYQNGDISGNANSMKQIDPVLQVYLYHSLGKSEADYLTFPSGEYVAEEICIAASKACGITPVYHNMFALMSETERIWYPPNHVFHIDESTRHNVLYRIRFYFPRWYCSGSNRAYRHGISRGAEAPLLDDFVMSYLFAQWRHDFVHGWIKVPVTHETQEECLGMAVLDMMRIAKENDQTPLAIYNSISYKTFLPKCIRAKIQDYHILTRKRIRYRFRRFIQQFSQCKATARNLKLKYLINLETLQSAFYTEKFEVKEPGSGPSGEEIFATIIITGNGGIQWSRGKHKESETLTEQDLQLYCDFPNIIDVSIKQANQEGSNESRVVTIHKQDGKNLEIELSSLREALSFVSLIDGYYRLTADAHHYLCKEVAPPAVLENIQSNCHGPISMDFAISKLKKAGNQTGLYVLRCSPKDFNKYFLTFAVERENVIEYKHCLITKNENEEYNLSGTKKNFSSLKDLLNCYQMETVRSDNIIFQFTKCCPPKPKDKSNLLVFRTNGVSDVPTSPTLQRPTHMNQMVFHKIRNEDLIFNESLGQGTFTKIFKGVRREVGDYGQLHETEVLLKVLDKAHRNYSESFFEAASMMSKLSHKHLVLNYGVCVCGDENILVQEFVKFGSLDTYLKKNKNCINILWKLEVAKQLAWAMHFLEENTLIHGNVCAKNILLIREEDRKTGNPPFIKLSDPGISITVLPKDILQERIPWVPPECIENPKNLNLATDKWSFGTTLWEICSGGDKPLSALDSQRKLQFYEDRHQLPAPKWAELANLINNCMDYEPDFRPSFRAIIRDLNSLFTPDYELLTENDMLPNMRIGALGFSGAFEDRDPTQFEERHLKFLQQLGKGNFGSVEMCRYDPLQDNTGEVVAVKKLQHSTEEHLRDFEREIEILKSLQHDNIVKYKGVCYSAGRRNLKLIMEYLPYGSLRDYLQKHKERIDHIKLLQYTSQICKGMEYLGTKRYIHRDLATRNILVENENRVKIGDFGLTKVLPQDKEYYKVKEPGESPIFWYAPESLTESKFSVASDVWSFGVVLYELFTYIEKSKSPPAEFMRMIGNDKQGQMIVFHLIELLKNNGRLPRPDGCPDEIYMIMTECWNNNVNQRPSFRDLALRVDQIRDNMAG
The experiment can be described thus: JAK2 Inhibition Assay (Omnia kinase fluorescence peptide substrate assay). As to conditions: averaged IC50 ranges; assay of Example C; 25 μM (Km app) or 1 mM ATP, 5 nM JAK2. In short, it runs like this: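 A 10-point, 3-fold compound series (top 10 μM, 2% DMSO) was tested against 5 nM JAK2 with 10 μM Omnia Y7 substrate and either 1 mM or 25 μM (Km app) ATP. Buffer: pH 7.4 HEPES, MgCl2, Triton X-100, DTT. Sox fluorescence was monitored kinetically for 45 min; IC50 is the concentration giving 50 POC on a 4-parameter fit.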

Experiment [4] deals with T4, JAK3 (Homo sapiens, UniProt P52333).
T4 construct: purchased Invitrogen Corporation, Carlsbad, Calif; PV4080
T4 sequence (P52333 1-1124): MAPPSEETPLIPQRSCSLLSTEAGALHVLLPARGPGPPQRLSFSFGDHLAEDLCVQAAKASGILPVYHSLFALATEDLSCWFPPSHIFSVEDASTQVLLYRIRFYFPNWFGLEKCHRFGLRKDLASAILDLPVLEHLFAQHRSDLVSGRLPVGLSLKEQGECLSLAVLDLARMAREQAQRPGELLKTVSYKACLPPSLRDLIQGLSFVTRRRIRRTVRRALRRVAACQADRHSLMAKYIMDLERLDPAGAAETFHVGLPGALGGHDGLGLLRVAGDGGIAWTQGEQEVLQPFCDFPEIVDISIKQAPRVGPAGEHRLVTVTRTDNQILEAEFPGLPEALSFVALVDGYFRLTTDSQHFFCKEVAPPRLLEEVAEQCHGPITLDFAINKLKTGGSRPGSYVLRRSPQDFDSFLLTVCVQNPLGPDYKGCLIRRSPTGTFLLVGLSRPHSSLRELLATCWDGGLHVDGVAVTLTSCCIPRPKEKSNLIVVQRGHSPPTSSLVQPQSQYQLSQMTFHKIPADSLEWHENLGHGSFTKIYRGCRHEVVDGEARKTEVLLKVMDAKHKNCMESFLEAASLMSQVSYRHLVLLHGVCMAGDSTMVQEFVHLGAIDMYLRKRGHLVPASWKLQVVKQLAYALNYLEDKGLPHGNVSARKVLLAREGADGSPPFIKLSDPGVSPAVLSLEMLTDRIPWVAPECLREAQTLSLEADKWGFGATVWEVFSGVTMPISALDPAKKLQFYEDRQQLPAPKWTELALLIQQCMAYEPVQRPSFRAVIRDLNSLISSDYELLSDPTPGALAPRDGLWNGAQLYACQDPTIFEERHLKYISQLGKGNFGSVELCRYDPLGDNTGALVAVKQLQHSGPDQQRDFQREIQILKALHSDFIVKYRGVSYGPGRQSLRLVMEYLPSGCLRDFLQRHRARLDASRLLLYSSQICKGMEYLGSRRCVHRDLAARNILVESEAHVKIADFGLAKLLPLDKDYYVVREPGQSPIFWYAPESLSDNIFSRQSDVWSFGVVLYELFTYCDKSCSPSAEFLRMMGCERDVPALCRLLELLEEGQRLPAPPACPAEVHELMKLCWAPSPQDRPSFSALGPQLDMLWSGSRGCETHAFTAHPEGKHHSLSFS
Nature of the experiment: JAK3 Inhibition Assay (Omnia kinase fluorescence peptide substrate assay). The settings on record: averaged IC50 ranges; assay of Example D; 10 μM (Km app) or 1 mM ATP, 2.5 nM JAK3. In short, it runs like this: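 Kinase at 2.5 nM with 10 µM Omnia Y7 peptide and 10 µM (Km app) or 1 mM ATP in 25 mM HEPES pH 7.4, 10 mM MgCl2, 1 mM DTT, 0.01% Triton X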

Where a name gives a salt, the structure may show the parent alone.

As a reminder, the IC50 is the concentration needed to halve the response being measured.

For the compound `CC(CC#N)n1cc(-c2nc(-c3ccc(N4CCOCC4)cc3)cc3nccn23)cn1` (stereo not drawn) [Example 118, 3-(4-(7-(4-morpholinophenyl)imidazo[1,2-c]pyrimidin-5-yl)-1H-pyrazol-1-yl)butanenitrile], the IC50 is < 10 nM in experiment [1], 10 to 100 nM in experiment [2], 10 to 100 nM in experiment [3] and 100 to 1000 nM in experiment [4].
As to `CC(C#N)Cn1cc(-c2nc(-c3ccc(N4CCOCC4)cc3)cc3nccn23)cn1` (stereo not drawn) [Example 119, 2-methyl-3-(4-(7-(4-morpholinophenyl)imidazo[1,2-c]pyrimidin-5-yl)-1H-pyrazol-1-yl)propanenitrile], the IC50 in experiment [1] lay in the range of 10 to 100 nM; in experiment [2], 10 to 100 nM; in experiment [3], 10 to 100 nM; in experiment [4] it was 100 to 1000 nM.
As for `N#CCCn1cc(-c2nc(-c3ccc(N4CCOCC4)cc3)cc3nccn23)cn1` [Example 120, 3-(4-(7-(4-morpholinophen-yl)imidazo[1,2-c]pyrimidin-5-yl)-1H-pyrazol-1-yl)propanenitrile], the IC50 in experiment [1] was < 10 nM; in experiment [2] it was 10 to 100 nM; in experiment [3], 10 to 100 nM; in experiment [4] it was > 1000 nM.
Consider `Cc1nn(C(CC#N)C2CCCC2)cc1-c1nc(-c2ccc(N3CCOCC3)cc2)cc2nccn12` (stereo not drawn) [Example 121, 3-Cyclopentyl-3-(3-methyl-4-(7-(4-morpholinophenyl)imidazo[1,2-c]pyrimidin-5-yl)-1H-pyrazol-1-yl)propanenitrile], for which the IC50 is < 10 nM in experiment [1], 100 to 1000 nM in experiment [2], 10 to 100 nM in experiment [3] and > 1000 nM in experiment [4].
As to `CC(C)(C)NC(=O)c1cc2nccn2c(-c2cnn(C(CC#N)C3CC3)c2)n1` (stereo not drawn) [Example 122, N-tert-butyl-5-(1-(2-cyano-1-cyclopropylethyl)-1H-pyrazol-4-yl)imidazo[1,2-c]pyrimidine-7-carboxamide], the 50% inhibitory concentration (IC50) in experiment [1] was 100 to 1000 nM; in experiment [2] it was > 1000 nM; in experiment [3] it was > 1000 nM; in experiment [4] it was > 1000 nM.
As for `N#CCC(C1CC1)n1cc(-c2nc(C(=O)NC3CCCCC3)cc3nccn23)cn1` (stereo not drawn) [Example 123, 5-(1-(2-Cyano-1-cyclopropylethyl)-1H-pyrazol-4-yl)-N-cyclohexylimidazo[1,2-c]pyrimidine-7-carboxamide], the IC50 in experiment [1] is 100 to 1000 nM; in experiment [2], > 1000 nM; in experiment [3], > 1000 nM; in experiment [4], > 1000 nM.
Turning to `N#CCC(C1CC1)n1cc(-c2nc(C(=O)NC3CCC3)cc3nccn23)cn1` (stereo not drawn) [Example 124, 5-(1-(2-Cyano-1-cyclopropylethyl)-1H-pyrazol-4-yl)-N-cyclobutylimidazo[1,2-c]pyrimidine-7-carboxamide], the IC50 in experiment [1] was 100 to 1000 nM; in experiment [2] it was > 1000 nM; in experiment [3], > 1000 nM; in experiment [4], > 1000 nM.
Take `N#CCC(C1CC1)n1cc(-c2nc(C(=O)Nc3ccccn3)cc3nccn23)cn1` (stereo not drawn) [Example 125, 5-(1-(2-cyano-1-cyclopropylethyl)-1H-pyrazol-4-yl)-N-(pyridin-2-yl)imidazo[1,2-c]pyrimidine-7-carboxamide]: the IC50 in experiment [1] is 100 to 1000 nM; in experiment [2], 100 to 1000 nM; in experiment [3], > 1000 nM; in experiment [4] it was > 1000 nM.
With `Cn1cc(-c2cc3nccn3c(-c3ccn(C(CC#N)C4CC4)c3)n2)cn1` (stereo not drawn) [Example 126, 3-Cyclopropyl-3-(3-(7-(1-methyl-1H-pyrazol-4-yl)imidazo[1,2-c]pyrimidin-5-yl)-1H-pyrrol-1-yl)propanenitrile], the concentration for half-maximal inhibition (IC50) in experiment [1] is < 10 nM; in experiment [2], 10 to 100 nM; in experiment [3], 10 to 100 nM; in experiment [4] it was 100 to 1000 nM.
On to `Cn1cc(-c2cc3nccn3c(-c3ccn(C4(CC#N)CNC4)c3)n2)cn1` [Example 127, 2-(3-(3-(7-(1-Methyl-1H-pyrazol-4-yl)imidazo[1,2-c]pyrimidin-5-yl)-1H-pyrrol-1-yl)azetidin-3-yl)acetonitrile trifluoroacetate], for which the concentration for half-maximal inhibition (IC50) was 10 to 100 nM in experiment [1], 100 to 1000 nM in experiment [2], 100 to 1000 nM in experiment [3] and > 1000 nM in experiment [4].
Take `Cn1cc(-c2cc3nccn3c(-c3ccn(C4(CC#N)CN(CC(F)(F)F)C4)c3)n2)cn1` [Example 128, 2-(3-(3-(7-(1-Methyl-1H-pyrazol-4-yl)imidazo[1,2-c]pyrimidin-5-yl)-1H-pyrrol-1-yl)-1-(2,2,2-trifluoroethyl)azetidin-3-yl)acetonitrile]: the IC50 in experiment [1] was < 10 nM; in experiment [2], 100 to 1000 nM; in experiment [3], 10 to 100 nM; in experiment [4], > 1000 nM.
On to `Cn1cc(-c2cc3nccn3c(-c3ccn(C4(CC#N)CN(C(=O)OC(C)(C)C)C4)n3)n2)cn1` [Example 129, Tert-butyl 3-(cyanomethyl)-3-(3-(7-(1-methyl-1H-pyrazol-4-yl)imidazo[1,2-c]pyrimidin-5-yl)-1H-pyrazol-1-yl)azetidine-1-carboxylate], for which the IC50 in experiment [1] was 100 to 1000 nM; in experiment [2], > 1000 nM; in experiment [3], > 1000 nM; in experiment [4], > 1000 nM.
As to `Cn1cc(-c2cc3nccn3c(-c3ccn(C4(CC#N)CNC4)n3)n2)cn1` [Example 130, 2-(3-(3-(7-(1-Methyl-1H-pyrazol-4-yl)imidazo[1,2-c]pyrimidin-5-yl)-1H-pyrazol-1-yl)azetidin-3-yl)acetonitrile hydrochloride], the IC50 in experiment [1] was 100 to 1000 nM; in experiment [2] it was > 1000 nM; in experiment [3] it was 100 to 1000 nM; in experiment [4], > 1000 nM.
For `Cn1cc(-c2cc3nccn3c(-c3ccn(C4(CC#N)CN(CC(F)(F)F)C4)n3)n2)cn1` [Example 131, 2-(3-(3-(7-(1-Methyl-1H-pyrazol-4-yl)imidazo[1,2-c]pyrimidin-5-yl)-1H-pyrazol-1-yl)-1-(2,2,2-trifluoroethyl)azetidin-3-yl)acetonitrile], the IC50 in experiment [1] was 10 to 100 nM; in experiment [2], > 1000 nM; in experiment [3], 100 to 1000 nM; in experiment [4] it was > 1000 nM.
For the compound `Cn1cc(-c2cc3nccn3c(-c3ccn(C(CC#N)C4CC4)n3)n2)cn1` (stereo not drawn) [Example 132, 3-Cyclopropyl-3-(3-(7-(1-methyl-1H-pyrazol-4-yl)imidazo[1,2-c]pyrimidin-5-yl)-1H-pyrazol-1-yl)propanenitrile], the 50% inhibitory concentration (IC50) in experiment [1] is 10 to 100 nM; in experiment [2], > 1000 nM; in experiment [3] it was 100 to 1000 nM; in experiment [4], 100 to 1000 nM.

The values above are taken from patent US8962596B2 (Array BioPharma Inc., priority 2010, dated 2015).
